The values below are quoted from earlier work in patent US20230391768A2, “IMIDAZOPYRIDINE DERIVATIVES AND AZA-IMIDAZOPYRIDINE DERIVATIVES AS JANUS KINASE 2 INHIBITORS AND USES THEREOF” (Dana-Farber Cancer Institute, Inc., priority 2018, published 2023).

Where only a bound is given, the exact number is not on record here.

The test system of the data set is cell lines or patient-derived xenografts from patients with CRLF2-rearranged B-ALL. The note with it: cited from earlier work.

Broadly, the IC50 is the point on the concentration scale where inhibition reaches its midpoint. `N#CC[C@H](C1CCCC1)n1cc(-c2ncnc3[nH]ccc23)cn1` [Ruxolitinib]: the concentration for half-maximal inhibition (IC50) is greater than 20 µM.
